Laboratory results from ChEMBL document CHEMBL1144521, “Design, synthesis and biological activity of selective and orally available TF/FVIIa complex inhibitors containing non-amidine P1 ligands” (Bioorg Med Chem, 2007).
One block for each compound: values may come before it.

Columns and labels:
Coagulation factor VII = biological target: T1, Coagulation factor VII (Homo sapiens, UniProt P08709); experiment: Inhibition of human TF/FVIIa complex by chromogenic assay
T1 sequence (P08709 whole entry): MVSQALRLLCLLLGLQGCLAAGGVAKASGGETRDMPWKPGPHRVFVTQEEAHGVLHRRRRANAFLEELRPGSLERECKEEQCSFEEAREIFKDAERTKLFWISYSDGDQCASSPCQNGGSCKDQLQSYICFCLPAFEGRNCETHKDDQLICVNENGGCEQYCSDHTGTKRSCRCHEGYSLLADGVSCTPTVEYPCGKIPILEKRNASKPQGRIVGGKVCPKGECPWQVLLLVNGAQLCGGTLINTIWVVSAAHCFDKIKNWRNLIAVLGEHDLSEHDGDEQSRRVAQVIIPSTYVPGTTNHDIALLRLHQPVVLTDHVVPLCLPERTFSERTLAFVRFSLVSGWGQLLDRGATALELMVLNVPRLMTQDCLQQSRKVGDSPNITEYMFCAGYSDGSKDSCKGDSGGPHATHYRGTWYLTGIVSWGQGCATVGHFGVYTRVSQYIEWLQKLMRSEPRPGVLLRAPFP

Plasma [1] = experiment: Anticoagulant potency in human citreated plasma assessed as concentration required to double prothrombin time; assay type: functional
Plasma [2] = experiment: Anticoagulant potency in human citreated plasma assessed as concentration required to double activated partial thromboplastin time; assay type: functional
Trypsin = Trypsin (Homo sapiens, UniProt P07477+P07478+P35030); experiment: Inhibition of human trypsin by chromogenic assay; assay type: protein assay
Prothrombin = Prothrombin (Homo sapiens, UniProt P00734); experiment: Inhibition of human thrombin by chromogenic assay
Coagulation factor X = Coagulation factor X (Homo sapiens, UniProt P00742); experiment: Inhibition of human Fxa by chromogenic assay
[3] = Plasma concentration in ICR mouse at 100 mg/kg, po after 0.5 hrs by TF/FVIIa inhibition assay; assay type: ADME, organism-based; set-up: dose 100 mg/kg, route oral
[4] = Plasma concentration in ICR mouse at 100 mg/kg, po after 2 hrs by TF/FVIIa inhibition assay; assay type: ADME, organism-based; set-up: dose 100 mg/kg, route oral
[5] = Plasma concentration in ICR mouse at 100 mg/kg, po after 4 hrs by TF/FVIIa inhibition assay; assay type: ADME, organism-based; set-up: dose 100 mg/kg, route oral
Cynomolgus monkey [6] = experiment: Effect on activated partial thromboplastin time in cynomolgus monkey citreated blood at 30 mg/kg, iv; assay type: functional, Macaca fascicularis
Cynomolgus monkey [7] = experiment: Effect on activated partial thromboplastin time in cynomolgus monkey citreated blood at 10 mg/kg, iv; assay type: functional, Macaca fascicularis
Cynomolgus monkey [8] = experiment: Prolongation of prothrombin time in cynomolgus monkey citreated blood at 10 mg/kg, iv; assay type: functional, Macaca fascicularis
Cynomolgus monkey [9] = experiment: Effect on bleeding time in cynomolgus monkey at 10 mg/kg, iv; assay type: functional, Macaca fascicularis
Cynomolgus monkey [10] = experiment: Prolongation of prothrombin time in cynomolgus monkey citreated blood at 30 mg/kg, iv; assay type: functional, Macaca fascicularis
Cynomolgus monkey [11] = experiment: Prolongation of prothrombin time in cynomolgus monkey citreated blood at 3 mg/kg, iv; assay type: functional, Macaca fascicularis
[12] = Plasma concentration in ICR mouse at 300 mg/kg, po after 0.5 hrs by TF/FVIIa inhibition assay; assay type: ADME, organism-based; set-up: dose 300 mg/kg, route oral
Cynomolgus monkey [13] = experiment: Effect on bleeding time in cynomolgus monkey at 30 mg/kg, iv; assay type: functional, Macaca fascicularis
Cynomolgus monkey [14] = experiment: Effect on activated partial thromboplastin time in cynomolgus monkey citreated blood at 3 mg/kg, iv; assay type: functional, Macaca fascicularis
Cynomolgus monkey [15] = experiment: Effect on bleeding time in cynomolgus monkey at 3 mg/kg, iv; assay type: functional, Macaca fascicularis
[16] = Plasma concentration in ICR mouse at 300 mg/kg, po after 2 hrs by TF/FVIIa inhibition assay; assay type: ADME, organism-based; set-up: dose 300 mg/kg, route oral

Coagulation factor X, sequence (P00742 41-179 limits assumed): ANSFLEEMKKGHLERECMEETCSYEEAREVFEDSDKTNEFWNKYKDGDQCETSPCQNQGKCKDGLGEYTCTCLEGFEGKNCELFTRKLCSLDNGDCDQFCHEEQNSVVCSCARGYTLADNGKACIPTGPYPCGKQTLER
Coagulation factor X, sequence (P00742 235-488 limits assumed): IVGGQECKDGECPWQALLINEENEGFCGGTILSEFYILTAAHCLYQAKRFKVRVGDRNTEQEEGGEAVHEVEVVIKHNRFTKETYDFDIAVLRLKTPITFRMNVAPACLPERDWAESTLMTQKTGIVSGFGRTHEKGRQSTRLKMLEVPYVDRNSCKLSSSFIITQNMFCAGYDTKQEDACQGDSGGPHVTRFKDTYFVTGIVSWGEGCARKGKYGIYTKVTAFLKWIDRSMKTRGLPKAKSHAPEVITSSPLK

Compound: CNc1ccc(-c2ccc(C(=O)N[C@H](CO)CC(C)C)cc2C(=O)O)c(C(=O)Nc2cccc(C(N)=O)c2)c1
IC50 (Coagulation factor VII): 0.3 µM

Compound: CC(C)C[C@H](NC(=O)c1ccc(-c2ccc(NC3CCCCC3)cc2C(=O)Nc2cccc(C(N)=O)c2)c(C(=O)O)c1)C(N)=O
IC50 (Coagulation factor VII): 91 µM

Compound: CNc1ccc(-c2ccc(C(=O)N[C@@H](CC(C)C)C(=O)O)cc2C(=O)O)c(C(=O)Nc2cccc(C(N)=O)c2)c1
Activity (Plasma [1]): 33 µM
Activity (Plasma [2]): >300 µM
IC50 (Coagulation factor VII): 0.15 µM
IC50 (Trypsin): > 200 µM
IC50 (Prothrombin): > 200 µM
IC50 (Coagulation factor X): > 200 µM

Compound: CNc1ccc(-c2ccc(C(=O)NCC(C)C)cc2C(=O)O)c(C(=O)Nc2cccc(C(N)=O)c2)c1
Activity (Plasma [1]): 150 µM
Activity (Plasma [2]): >300 µM
IC50 (Coagulation factor VII): 0.69 µM
IC50 (Trypsin): 4.8 µM
IC50 (Prothrombin): > 200 µM
IC50 (Coagulation factor X): > 200 µM

Compound: CNc1ccc(-c2ccc(C(=O)N[C@@H](CC(C)C)C(N)=O)cc2C(=O)O)c(C(=O)Nc2ccc(CN)cc2)c1
concentration at 4 h [5]: 130 ng/mL
APTT (Cynomolgus monkey [6]): 35 s
APTT (Cynomolgus monkey [7]): 32.2 s
PT (Cynomolgus monkey [8]): 24.5 s
Activity (Cynomolgus monkey [9]): 2.7 min
PT (Cynomolgus monkey [10]): 38.4 s
Activity (Plasma [1]): 47 µM
PT (Cynomolgus monkey [11]): 15.1 s
concentration at 0.5 h [12]: 1800 ng/mL
Activity (Cynomolgus monkey [13]): 3.7 min
Activity (Plasma [2]): >300 µM
APTT (Cynomolgus monkey [14]): 29.1 s
IC50 (Coagulation factor VII): 0.59 µM
Activity (Cynomolgus monkey [15]): 3.5 min
IC50 (Trypsin): > 200 µM
IC50 (Prothrombin): > 200 µM
IC50 (Coagulation factor X): > 200 µM

Compound: CC(C)CNC(=O)c1ccc(-c2ccccc2C(=O)Nc2ccc(C(=N)N)cc2)c(C(=O)O)c1
concentration at 2 h [16]: 160 ng/mL
Activity (Plasma [1]): 4.2 µM
concentration at 0.5 h [12]: 300 ng/mL
Activity (Plasma [2]): 4.3 µM
IC50 (Coagulation factor VII): 0.089 µM
IC50 (Trypsin): 4.8 µM
IC50 (Prothrombin): > 200 µM
IC50 (Coagulation factor X): 0.88 µM

Compound: CC(C)CCNC(=O)c1ccc(-c2ccccc2C(=O)Nc2cccc(C(N)=O)c2)c(C(=O)O)c1
IC50 (Coagulation factor VII): 19 µM

Compound: CNc1ccc(-c2ccc(C(=O)N[C@H](CO)CC(C)C)cc2C(=O)O)c(C(=O)Nc2ccc(CN)cc2)c1
IC50 (Coagulation factor VII): 1.3 µM

Compound: CC(C)C[C@H](NC(=O)c1ccc(-c2ccc(NC(C)C)cc2C(=O)Nc2cccc(C(N)=O)c2)c(C(=O)O)c1)C(N)=O
IC50 (Coagulation factor VII): 0.86 µM

Compound: CC(C)C[C@H](CO)NC(=O)c1ccc(-c2ccccc2C(=O)Nc2cccc(C(N)=O)c2)c(C(=O)O)c1
IC50 (Coagulation factor VII): 191 µM

Compound: CC(C)C[C@H](NC(=O)c1ccc(-c2ccccc2C(=O)Nc2cccc(C(N)=O)c2)c(C(=O)O)c1)C(N)=O
IC50 (Coagulation factor VII): 4.2 µM

Further compounds by falling IC50 (Coagulation factor VII), results first:

IC50 (Coagulation factor VII): 19 µM
Compound: CC(C)CNC(=O)c1ccc(-c2ccccc2C(=O)Nc2cccc(C(N)=O)c2)c(C(=O)O)c1

IC50 (Coagulation factor VII): 8.5 µM
Compound: CC(C)C[C@@H](CO)NC(=O)c1ccc(-c2ccccc2C(=O)Nc2cccc(C(N)=O)c2)c(C(=O)O)c1

IC50 (Coagulation factor VII): 4.2 µM
Compound: CNC(=O)[C@H](CC(C)C)NC(=O)c1ccc(-c2ccccc2C(=O)Nc2cccc(C(N)=O)c2)c(C(=O)O)c1

IC50 (Coagulation factor VII): 3.2 µM
Compound: CC(C)C[C@H](NC(=O)c1ccc(-c2ccccc2C(=O)Nc2cccc(C(N)=O)c2)c(C(=O)O)c1)C(=O)N(C)C

IC50 (Coagulation factor VII): 2.4 µM
Compound: CC(C)C[C@H](NC(=O)c1ccc(-c2ccccc2C(=O)Nc2cccc(C(N)=O)c2)c(C(=O)O)c1)C(=O)O

IC50 (Coagulation factor VII): 2.2 µM
Compound: CCCCNc1ccc(-c2ccc(C(=O)N[C@@H](CC(C)C)C(N)=O)cc2C(=O)O)c(C(=O)Nc2cccc(C(N)=O)c2)c1

IC50 (Coagulation factor VII): 0.3 µM
Compound: CCNc1ccc(-c2ccc(C(=O)N[C@@H](CC(C)C)C(N)=O)cc2C(=O)O)c(C(=O)Nc2cccc(C(N)=O)c2)c1

IC50 (Coagulation factor VII): 0.18 µM
IC50 (Trypsin): > 200 µM
concentration at 0.5 h [3]: 280 ng/mL
IC50 (Prothrombin): > 200 µM
concentration at 2 h [4]: 210 ng/mL
IC50 (Coagulation factor X): > 200 µM
Compound: CNc1ccc(-c2ccc(C(=O)N[C@@H](CC(C)C)C(N)=O)cc2C(=O)O)c(C(=O)Nc2cccc(C(N)=O)c2)c1
Activity (Plasma [1]): 20 µM
Activity (Plasma [2]): >300 µM
